Test results reported in US11786497B2, “High penetration prodrug compositions of retinoids and retinoids-related compounds” (Techfields Pharma Co., Ltd., priority 2007, dated 2023).

Columns and labels:
[1] = tested on: human acute promyelocytic leukemia(APL) line; assay: Survival of mice implanted with human acute promyelocytic leukemia line; assay type: in vivo; settings: for None Disease Rate at day 160: animals out of 7; for Life Elongation Rate: control = 100; for Survival Period: n=7
Source text: For evaluation of antitumor activity, a human acute promyelocytic leukemia(APL) line derived from a patient with acute promyelocytic leukemia (APL) was implanted into mice.

[2] = tested on: Lesions similar to psoriasis induced by Malassezia; assay: Malassezia-induced lesions similar to psoriasis on rabbit skin; assay type: in vivo, Chinese white rabbits; settings: 200 μl of 0.05% aqueous solution, topical twice per day, 3 hours after Malassezia; control lesions became worse
Source text: Heavy suspensions of Malassezia [Rosenberg, E. W., et al., Mycopathologia, 72, 147-154 (1980)] were applied to shaved skin on the backs of Chinese white rabbits (n=4×10) twice (at 7 am and 7 pm respectively) per day for 2 weeks. […] The control group was only applied with Malassezia.

[3] = In vitro penetration across human skin in modified Franz cells
Procedure: In each case, the vehicle was a pH 7.4 phosphate buffer (0.2 M).
Penetration rates of HPPs and their parent drugs through human skin were measured in vitro by modified Franz cells. A Franz cell had two chambers, the top sample chamber and the bottom receiving chamber. The human skin tissue (360-400 μm thick) that separated the top and the receiving chambers was isolated from the anterior or posterior thigh areas.
A compound tested (0.2 mL, 5% in 0.2 M phosphate buffer, pH 7.4) were added to the sample chamber of a Franz cell. The receiving chamber contains 2 ml of 2% bovine serum albumin in saline which was stirred at 600 rpm. The amount of the tested compound penetrating the skin was determined by high-performance liquid chromatography (HPLC) method.

[4] = tested on: human breast cancer cells (BCAP-37); assay: Antitumor activity against human breast cancer cells implanted into nude mice; assay type: in vivo, nude mice (BALB); settings: 50 μl of 1% in 0.2M pH 7.4 phosphate buffer, topically to implanted area twice per day from day 3; control 100% incidence
Source text: For evaluation of antitumor activity of these prodrugs, human breast cancer cells (BCAP-37) were implanted into nude mice (BALB). […] The average weight of the treated group was 25 grams and that of the control group was 21 grams.

[5] = Irritative effect or discomfort on skin of mice after topical application; assay type: in vivo; settings: 0.1 ml of 0.5% in pH 7.4 phosphate buffer to back of nude mice twice per day, 1 week
Procedure: Irritative effect or discomfort in the skin of mice of HPPs of retinoids or retinoid-related compounds was evaluated during a period of 1 week after the topical application of 0.1 ml of 0.5% of the respective test drug in pH 7.4 phosphate buffer (0.2 M) to the back of nude mice twice per day.

[6] = Conversion of HPPs to parent drugs in human plasma (half life); assay type: in vitro ADME; settings: 37° C., HPLC
Procedure: HPPs of retinoids or retinoid-related compounds converted to the parent retinoids or retinoid-related compounds quickly in good yield in human plasma.
A HPP of retinoids or retinoid-related compound (10 mg) was dissolved in 0.1 ml of 0.2M pH 7.4 phosphate buffer. 1 ml of human plasma, preheated to 37° C., was added into the mixture. The mixture was kept in a water bath at 37° C., and at every 2 min intervals 0.2 ml of samples were withdrawn and added to 0.4 ml of methanol to precipitate the plasma protein. The samples were centrifuged for 5 min and analyzed by HPLC.

Solubility in water = assay type: physicochemical
Procedure: (§1) 30 g (0.1 mol) of sodium 9-cis-retinoate was dissolved in 100 ml of acetonitrile. 26.1 g (0.1 mol) of 2-Bromo-N,N-diethylethylamine·HBr was added into the reaction mixture. The mixture was stirred for overnight at RT. The solvents were evaporated off. 200 ml of ethanol was added into the residue. The solid was removed by filtration. The solution was evaporated to dryness. 100 ml of ethyl acetate was added into the reaction mixture. Hexane (100 ml) was added. The solid product was collected by filtration. After drying, it yielded 36 g of the desired product (75%). Hygroscopic product; solubility in water: 30 mg/ml; elementary analysis: C26H42BrNO2; MW: 480.52; calculated % C: 64.99; H: 8.81; Br: 16.63; N: 2.91; O: 6.66; found % C: 65.03; H: 8.80; Br: 16.60; N: 2.89; O: 6.68.
as §1, with “13-cis-retinoate” for “9-cis-retinoate”, “Hygroscopic product; solubility in water: 30 mg/ml; elementary analysis: C26H42BrNO2; MW: 480.52; calculated % C: 64.99; H: 8.81; Br: 16.63; N: 2.91; O: 6.66; found % C: 65.03; H: 8.80; Br: 16.60; N: 2.89; O: 6.68.” left out

[7] = 10 mg/kg per day, transdermally
[8] = parent compound, 5% suspension in pH 7.4 phosphate buffer (0.2 M), isolated human skin, Franz cells, n=5

In the case of `C=C(c1ccc(C(=O)OCN2CCCC2)cc1)c1cc2c(cc1C)C(C)(C)CCC2(C)C.Cl`, the “None Disease Rate at day 160” value ([1]; 5 mg/kg per day, transdermally) is reported as 5/7, the “Life Elongation Rate” value ([1]; 5 mg/kg per day, transdermally) is reported as 306% and the “Survival Period” value ([1]; 5 mg/kg per day, transdermally) is reported as 96.5 ± 4.4 days. The “None Disease Rate at day 160” value [1, 7] was 6/7, the “Life Elongation Rate” value [1, 7] was 529% and the “Survival Period” value [1, 7] was 166.5 ± 5.4 days.
For `Br.CC1=C(/C=C/C(C)=C/C=C/C(C)=C/C(=O)OCCN2CCCCC2)C(C)(C)CCC1`, the “None Disease Rate at day 160” value ([1]; 5 mg/kg per day, transdermally) was 4/7, the “Life Elongation Rate” value ([1]; 5 mg/kg per day, transdermally) was 278% and the “Survival Period” value ([1]; 5 mg/kg per day, transdermally) was 87.8 ± 3.4 days. For the same compound, the “None Disease Rate at day 160” value [1, 7] was 5/7, the “Life Elongation Rate” value [1, 7] was 429% and the “Survival Period” value [1, 7] was 135.2 ± 5.9 days. The “lesions 10 days after application of Malassezia and HPP” value [2] was “resolved”.
With `Br.CC1=C(/C=C/C(C)=C\C=C\C(C)=C\C(=O)OCCN2CCCCC2)C(C)(C)CCC1` [9-cis-retinoic acid 1-piperidineethyl ester·HBr] the “In vitro Penetration Rate (apparent flux) of HPPs” value ([3]; HPP, 5% solution in pH 7.4 phosphate buffer (0.2 M), isolated human skin, Franz cells, n=5) was 0.67 mg/cm^2/h.
In the case of `Br.CC1=C(/C=C/C(C)=C\C=C\C(C)=C\C(=O)OCC2CCCN2)C(C)(C)CCC1` (stereo not drawn) [9-cis-retinoic acid 2-pyrrolidinemethyl ester·HBr], the “None Disease Rate at day 160” value ([1]; 5 mg/kg per day, transdermally) is reported as 3/7, the “Life Elongation Rate” value ([1]; 5 mg/kg per day, transdermally) is reported as 230% and the “Survival Period” value ([1]; 5 mg/kg per day, transdermally) is reported as 72.5 ± 4.6 days. For the same compound, the “None Disease Rate at day 160” value [1, 7] was 5/7, the “Life Elongation Rate” value [1, 7] was 385% and the “Survival Period” value [1, 7] was 121.2 ± 4.8 days.
With `CC1=C(/C=C/C(C)=C\C=C\C(C)=C\C(=O)O)C(C)(C)CCC1` [9-cis-retinoic acid (alitretinoin), 9-cis-retinoic acid, reference compound] the “None Disease Rate at day 160” value ([1]; 5 mg/kg per day, orally) was 1/7, the “Life Elongation Rate” value ([1]; 5 mg/kg per day, orally) was 144% and the “Survival Period” value ([1]; 5 mg/kg per day, orally) was 45.5 ± 2.3 days. The “None Disease Rate at day 160” value ([1]; 10 mg/kg per day, orally) was 3/7, the “Life Elongation Rate” value ([1]; 10 mg/kg per day, orally) was 207% and the “Survival Period” value ([1]; 10 mg/kg per day, orally) was 65.2 ± 4.1 days. For the same compound, the “In vitro Penetration Rate (apparent flux) of Parent compounds” value [3, 8] was 0.005 mg/cm^2/h.
For `CC1=C(/C=C/C(C)=C/C=C/C(C)=C\C(=O)O)C(C)(C)CCC1` [13-cis-retinoic acid (isotretinoin), 13-cis-retinoic acid], the “In vitro Penetration Rate (apparent flux) of Parent compounds” value [3, 8] was 0.005 mg/cm^2/h.
In the case of `C=C(c1ccc(C(=O)OCCN(CC)CC)cc1)c1cc2c(cc1C)C(C)(C)CCC2(C)C.Cl` [N,N-diethylaminoethyl 4-[1-(5,6,7,8-tetrahydro-3,5,5,8,8-pentamethyl-2-naphthalenyl)ethenyl]benzoate·HCl], the “In vitro Penetration Rate (apparent flux) of HPPs” value ([3]; pH 7.4) is reported as 0.35 mg/cm^2/h, the “tumor seen after 20 days” value [4] is reported as “none of tumor was seen” and the “signs of irritative effect or discomfort” value [5] is reported as “None of any signs of irritative effect or discomfort”. For the same compound, the “Half life of HPPs in plasma” value [6] was 15 ± 1 min.
With `Br.CCN(CC)CCOC(=O)/C=C(C)/C=C/C=C(C)\C=C\C1=C(C)CCCC1(C)C` [N,N-diethylaminoethyl 9-cis-retinoate·HBr] the solubility in water (Solubility in water) was 30 mg/mL, the “lesions 10 days after application of Malassezia and HPP” value [2] was “resolved” and the “tumor seen after 20 days” value [4] was “none of tumor was seen”. The “signs of irritative effect or discomfort” value [5] was “None of any signs of irritative effect or discomfort” and the “Half life of HPPs in plasma” value [6] was 12 ± 1 min.
With `Br.CCN(CC)CCOC(=O)\C=C(C)/C=C/C=C(C)/C=C/C1=C(C)CCCC1(C)C` [N,N-diethylaminoethyl 13-cis-retinoate·HBr] the solubility in water (Solubility in water) was 30 mg/mL, the “In vitro Penetration Rate (apparent flux) of HPPs” value ([3]; pH 7.4) was 0.85 mg/cm^2/h and the “signs of irritative effect or discomfort” value [5] was “None of any signs of irritative effect or discomfort”. For the same compound, the “Half life of HPPs in plasma” value [6] was 13 ± 1 min.
In the case of `Br.CCN(CC)CCOC(=O)/C=C(C)/C=C/C=C(C)/C=C/C1=C(C)CCCC1(C)C` [N,N-diethylaminoethyl all-trans-retinoate·HBr], the “In vitro Penetration Rate (apparent flux) of HPPs” value ([3]; pH 7.4) is reported as 1.25 mg/cm^2/h, the “signs of irritative effect or discomfort” value [5] is reported as “None of any signs of irritative effect or discomfort” and the “Half life of HPPs in plasma” value [6] is reported as 11 ± 1 min.
In the case of `CC1=C(/C=C/C(C)=C/C=C/C(C)=C/C(=O)O)C(C)(C)CCC1` [all-trans-retinoic acid (tretinoin), all-trans-retinoic acid, reference compound], the “None Disease Rate at day 160” value ([1]; 5 mg/kg per day, orally) is reported as 0/7, the “Life Elongation Rate” value ([1]; 5 mg/kg per day, orally) is reported as 158% and the “Survival Period” value ([1]; 5 mg/kg per day, orally) is reported as 49.7 ± 3.6 days. For the same compound, the “None Disease Rate at day 160” value ([1]; 10 mg/kg per day, orally) was 2/7, the “Life Elongation Rate” value ([1]; 10 mg/kg per day, orally) was 249% and the “Survival Period” value ([1]; 10 mg/kg per day, orally) was 78.5 ± 3.7 days. The “In vitro Penetration Rate (apparent flux) of Parent compounds” value [3, 8] was 0.005 mg/cm^2/h.
In the case of `C=C(c1ccc(C(=O)O)cc1)c1cc2c(cc1C)C(C)(C)CCC2(C)C` [bexaroten (Targretin ®), reference compound], the “None Disease Rate at day 160” value ([1]; 5 mg/kg per day, orally) is reported as 3/7, the “Life Elongation Rate” value ([1]; 5 mg/kg per day, orally) is reported as 205% and the “Survival Period” value ([1]; 5 mg/kg per day, orally) is reported as 64.5 ± 3.7 days. The “None Disease Rate at day 160” value ([1]; 10 mg/kg per day, orally) was 5/7, the “Life Elongation Rate” value ([1]; 10 mg/kg per day, orally) was 302% and the “Survival Period” value ([1]; 10 mg/kg per day, orally) was 95.2 ± 3.9 days. For the same compound, the “apparent flux value of parent drug” value ([3]; lowest detectable flux 1 μg/cm^2/h, considered not detectable) was 1 μg/cm^2/h and the “In vitro Penetration Rate (apparent flux) of Parent compounds” value [3, 8] was 0.001 mg/cm^2/h.
For `CC1=C(/C=C/C(C)=C/C=C/C(C)=C/COC(=O)CN(C)C)C(C)(C)CCC1.Cl` [retinyl N,N-dimethyl-2-aminoacetate·HCl], the “In vitro Penetration Rate (apparent flux) of HPPs” value ([3]; pH 7.4) was 1.21 mg/cm^2/h, the “signs of irritative effect or discomfort” value [5] was “None of any signs of irritative effect or discomfort” and the “Half life of HPPs in plasma” value [6] was 20 ± 1 min.
In the case of `CC1=C(/C=C/C(C)=C/C=C/C(C)=C/CO)C(C)(C)CCC1` [vitamin A (retinol), retinol], the “In vitro Penetration Rate (apparent flux) of Parent compounds” value ([3]; human, 5 %, pH 7.4) is reported as 0.005 mg/cm^2/h.
